Test: Evaluation of solubility in organic solvents (visual observation of complete dissolution)
Type: physicochemical
Description: [Evaluation of Solubility]
The evaluation of the solubility of the synthesized compound was conducted by the following method.
About 2-3 mg of the compound was precisely weighed, and each solvent was added to the compound such that a predetermined concentration of the solute (0.5 wt %, 0.3 wt %, 0.2 wt %, 0.1 wt %, 0.05 wt %, or 0.03 wt %) was reached. The resultant mixture was stirred for 30 minutes at a predetermined temperature, and then it was evaluated by visual appearance observation whether or not the solute (synthesized compound) was completely dissolved in the solvent, which was the result of the evaluation of the solubility. As the solvent, chloroform (boiling point 61° C.), toluene (boiling point 111° C.), xylene (boiling point 144° C.), mesitylene (boiling point 165° C.), chlorobenzene (boiling point 130° C.), para-chlorotoluene (boiling point 162° C.), and ortho-dichlorobenzene (boiling point 181° C.) were used.

| Structure (SMILES) | solubility (solute concentration completely dissolved) (chlorobenzene, 60° C.) | solubility (solute concentration completely dissolved) (chlorobenzene, 80° C.) | solubility (solute concentration completely dissolved) (ortho-dichlorobenzene, 60° C.) | solubility (solute concentration completely dissolved) (mesitylene, 80° C.) | solubility (solute concentration completely dissolved) (toluene, 60° C.) | further results |
| --- | --- | --- | --- | --- | --- | --- |
| CCCCCCc1cc(-c2ccc(-c3c4c(c(-c5ccc(-c6ccc(C(F)(F)F)c(CCCCCC)c6)s5)c5nsnc35)N=S=N4)s2)ccc1C(F)(F)F [Compound (C10), 4,8-bis[5-(3-hexyl-4-(trifluoromethyl)phenyl)thiophene-2-yl]benzo[1,2-c:4,5-c′]bis[1,2,5]thiadiazole] | ≥ 0.1 wt % | ≥ 0.3 wt % | ≥ 0.1 wt % |  |  | solubility (solute concentration completely dissolved) (chlorobenzene, 25° C.): ≥ 0.03 wt %; solubility (solute concentration completely dissolved) (mesitylene, 25° C.): ≥ 0.03 wt %; solubility (solute concentration completely dissolved) (ortho-dichlorobenzene, 25° C.): ≥ 0.03 wt %; solubility (solute concentration completely dissolved) (ortho-dichlorobenzene, 100° C.): ≥ 0.5 wt %; solubility (solute concentration completely dissolved) (toluene, 25° C.): ≥ 0.03 wt % |
| CCCCCCc1ccc(-c2ccc(-c3c4c(c(-c5ccc(-c6ccc(CCCCCC)c(C#N)c6)s5)c5nsnc35)N=S=N4)s2)cc1C#N [Compound (C7), 4,8-bis[5-(3-cyano-4-hexylphenyl)thiophene-2-yl]benzo[1,2-c:4,5-c′]bis[1,2,5]thiadiazole] | ≥ 0.5 wt % |  |  | ≥ 0.5 wt % | ≥ 0.1 wt % | solubility (solute concentration completely dissolved) (chlorobenzene, 25° C.): ≥ 0.1 wt %; solubility (solute concentration completely dissolved) (mesitylene, 60° C.): ≥ 0.1 wt %; solubility (solute concentration completely dissolved) (toluene, 100° C.): ≥ 0.5 wt % |
| CCCCCCc1ccc(-c2ccc(-c3c4c(c(-c5ccc(-c6ccc(CCCCCC)c(OC(F)(F)F)c6)s5)c5nsnc35)N=S=N4)s2)cc1OC(F)(F)F [Compound (C11), 4,8-bis[5-(4-hexyl-3-(trifluoromethoxy)phenyl)thiophene-2-yl]benzo[1,2-c:4,5-c′]bis[1,2,5]thiadiazole] | ≥ 0.1 wt % | ≥ 0.5 wt % | ≥ 0.1 wt % | ≥ 0.1 wt % | ≥ 0.1 wt % | solubility (solute concentration completely dissolved) (mesitylene, 100° C.): ≥ 0.5 wt %; solubility (solute concentration completely dissolved) (ortho-dichlorobenzene, 80° C.): ≥ 0.5 wt %; solubility (solute concentration completely dissolved) (toluene, 80° C.): ≥ 0.5 wt % |
| CCCCCCc1cc(-c2ccc(-c3c4c(c(-c5ccc(-c6ccc(OC(F)(F)F)c(CCCCCC)c6)s5)c5nsnc35)N=S=N4)s2)ccc1OC(F)(F)F [Compound (C12)] | ≥ 0.1 wt % | ≥ 0.5 wt % | ≥ 0.1 wt % | ≥ 0.1 wt % |  | solubility (solute concentration completely dissolved) (mesitylene, 130° C.): ≥ 0.5 wt %; solubility (solute concentration completely dissolved) (ortho-dichlorobenzene, 80° C.): ≥ 0.5 wt % |
| FC(F)(F)Oc1ccccc1-c1ccc(-c2c3c(c(-c4ccc(-c5ccccc5OC(F)(F)F)s4)c4nsnc24)N=S=N3)s1 [Compound (RR1), 4,8-bis[5-(2-(trifluoromethoxy)phenyl)thiophene-2-yl]benzo[1,2-c:4,5-c′]bis[1,2,5]thiadiazole, reference compound] |  |  |  | ≥ 0.1 wt % |  | solubility (solute concentration completely dissolved) (toluene, 80° C.): ≥ 0.1 wt % |
| CCCCCCCCc1cc(-c2ccc(-c3c4c(c(-c5ccc(-c6ccc(C(F)(F)F)c(CCCCCCCC)c6)s5)c5nsnc35)N=S=N4)s2)ccc1C(F)(F)F [Compound (C24), 4,8-bis[5-(3-octyl-4-(trifluoromethyl)phenyl)thiophene-2-yl]benzo[1,2-c:4,5-c′]bis[1,2,5]thiadiazole] |  |  | ≥ 0.3 wt % |  | ≥ 0.3 wt % | solubility (solute concentration completely dissolved) (1-methylnaphthalene, 60° C.): ≥ 0.3 wt %; solubility (solute concentration completely dissolved) (chloroform, 60° C.): ≥ 0.2 wt %; solubility (solute concentration completely dissolved) (mesitylene, 60° C.): ≥ 0.3 wt % |
| FC(F)(F)Oc1cccc(-c2ccc(-c3c4c(c(-c5ccc(-c6cccc(OC(F)(F)F)c6)s5)c5nsnc35)N=S=N4)s2)c1 [Compound (C1), 4,8-bis[5-(3-(trifluoromethoxy)phenyl)thiophene-2-yl]benzo[1,2-c:4,5-c′]bis[1,2,5]thiadiazole] |  |  |  | ≥ 0.1 wt % |  | solubility (solute concentration completely dissolved) (mesitylene, 130° C.): ≥ 0.3 wt %; solubility (solute concentration completely dissolved) (toluene, 100° C.): ≥ 0.1 wt % |

From patent publication US9978954B2, “Benzobis (thiadiazole) derivative, ink comprising same, and organic electronic device comprising same” (UBE INDUSTRIES, LTD., priority 2013, dated 2018)
